The values below come from patent US7718767B2, “3-ether and 3-thioether substituted cyclosporin derivatives for the treatment and prevention of hepatitis C infection” (Scynexis, Inc., priority 2006, dated 2010).

What is called EC50 is the concentration giving half of the maximal effect. Read a low EC50 as greater potency. The term EC90 denotes the concentration needed for an effect of 90%. What is called IC50 is the point on the concentration scale where inhibition reaches its midpoint. The IC90 is the concentration needed for an effect of 90%.

The subject of data set [1] is HCV RNA replicon ET. Briefly: HCV RNA replicon luciferase reporter assay, antiviral activity. In kind it is cell-based. The settings on record: ET replicon cells, 72 h, LUC activity. On the technique in general: A replicon is a self-replicating genome or part of one, used to study replication in cells.
The test system of data set [2] is human hepatoma cell line ET. Kind of data set: Cytotoxicity in the replicon cell line, colorimetric assay of cell numbers. The settings on record: ET cells, 72 h. An excerpt: Compounds were examined in the human hepatoma cell line ET (lub ubi heo/ET), a HCV RNA replicon containing a stable luciferase (LUC) reporter. The HCV RNA replicon ET contains the 5′ end of HCV (with the HCV Internal Ribosome Entry Site (IRES) and the first few amino acids of the HCV core protein) which drives the production of a firefly luciferase (LUC), ubiquitin, and neomycin phosphotransferase (NeoR) fusion protein. Ubiquitin cleavage releases the LUC and NeoR proteins. The EMCV IRES element controls the translation of the HCV […] NS3-NS5. The NS3 protein cleaves the HCV polyprotein to release the mature NS3, NS4A, NS4B, NS5A and NS5B proteins that are required for HCV replication. At the 3′ end of the replicon is the authentic 3′ NTR of HCV. The activity of the LUC reporter is directly proportional to HCV replication levels and positive-control antiviral compounds produce a reproducible antiviral response using the LUC endpoint.
The compounds were dissolved in DMSO at five half-log concentrations each, ranging from either 0.02 to 2.0 μM, 0.03 to 3 μM, […], or 1 to 100 μM. Subconfluent cultures of the ET line were plated out into 96 well plates dedicated for the analysis of cell numbers (cytotoxicity) or antiviral activity and the next day the compounds were added to the appropriate wells. The cells were processed 72 h later when the cells were still subconfluent. […] The activity of the LUC reporter is directly proportional to HCV RNA levels in the human cell line. The HCV-replicon assay was validated in parallel experiments using interferon-alpha-2b as a positive control.

Data set [3] concerns HIV-1IIIB. Briefly: HIV MTS cytoprotection assay in CEM-SS cells. It is filed as cell-based, human immunodeficiency virus-1. The note with it: 6 days post-infection, concentration inhibiting virus replication by 50%. (Tetrazolium assays rely on reduction of a dye to a coloured formazan, in cell work by metabolically active cells.)
Data set [4] relates to CEM-SS cells. Kind of data set: Compound cytotoxicity in the HIV MTS assay (cells plus drug only). In kind it is cell-based, human. The note with it: 50% inhibition of cell growth. As for the experimental part: In this MTS cytoprotection assay, each experiment included cell control wells (cells only), virus control wells (cells plus virus), drug toxicity wells (cells plus drug only), drug colorimetric control wells (drug only) as well as experimental wells (drug plus cells plus virus). […] HIV-1RF was added to each well in a volume of 50 μL, the amount of virus determined to give approximately 90% cell killing at 6 days post-infection. At assay termination, assay plates were stained with the soluble tetrazolium-based dye MTS (CellTiter 96 Reagent, Promega) to determine cell viability and quantify compound toxicity. MTS is metabolized by the mitochondria enzymes of metabolically active cells to yield a soluble formazan product, providing a quantitative analysis of cell viability and compound cytotoxicity. The assay was validated in parallel experiments using Zidovudine (3′-azido-3′-deoxythymidine or AZT) as a positive control.

Regarding `C/C=C/C[C@@H](C)[C@@H](O)[C@H]1C(=O)N[C@@H](CC)C(=O)N(C)[C@H](OC(C)C)C(=O)N(C)[C@@H](CC(C)C)C(=O)N[C@@H](C(C)C)C(=O)N(C)[C@@H](CC(C)C)C(=O)N[C@@H](C)C(=O)N[C@H](C)C(=O)N(C)[C@@H](CC(C)C)C(=O)N(C)[C@@H](CC(C)C)C(=O)N(C)[C@@H](C(C)C)C(=O)N1C` [D, 3-(isopropoxy)cyclosporin], the results for the concentration giving a half-maximal response (EC50) in data set [1] (concentration reducing viral replication by 50%) and in data set [3] were 0.29 µM and 1.36 µM, respectively. This compound had an EC90 in data set [1] (concentration reducing viral replication by 90%) of 1.32 µM. Further, the half-inhibitory concentration (IC50) in data set [2] (read-out: Cytotoxicity IC50, concentration inhibiting cell viability by 50%) was 17.2 µM; in data set [4], > 20 µM. Further, the 90% effect concentration (IC90) in data set [2] (read-out: Cytotoxicity IC90, concentration inhibiting cell viability by 90%) was > 20 µM.
